Earlier results in patent US6967218B2, “Pravastatin pharmaceutical formulations and methods of their use” (Biovail Laboratories, Inc., priority 2002, dated 2005).

Key:
[1] = intravenous, healthy volunteers
[2] = Schalke et al, 1992
[3] = in vivo

decrease of systemic bioavailability after bedtime (PM) dose compared to morning (AM) dose (PM vs AM dose): 60%
absolute bioavailability (oral, man): 17%
fraction of radiolabeled oral dose excreted in feces (radiolabeled oral dose): 70%
fraction of radiolabeled oral dose excreted in urine (radiolabeled oral dose): Approximately 20%
share of total body clearance by non-renal routes (biliary excretion and biotransformation) [1]: 53%
share of total body clearance via renal excretion [1]: approximately 47%
first-pass extraction ratio in the liver [3]: 0.66
Compound: CC[C@H](C)C(=O)O[C@H]1C[C@H](O)C=C2C=C[C@H](C)[C@H](CC[C@@H](O)C[C@@H](O)CC(=O)O)[C@H]21 [pravastatin, Pravastatin]
adverse effect observed in treated patients [2]: Severe myopathy
